The values below come from ChEMBL document CHEMBL5727960, “Wee-1 inhibiting pyrazolopyrimidinone compounds” (2020).

In general, pIC50 refers to −log10 of the IC50, conventionally taken in molar units. Higher therefore signals a low IC50.

The target of this assay is Wee1-like protein kinase (Homo sapiens, UniProt P30291). The assay is described as follows: Kinase Activity Assay: All reactions took place in 60 μL volumes in reaction buffer containing 40 mM Tris-HCl and 20 mM magnesium chloride, supplemented with 0.1 mg/mL bovine serum albumin and 2 mM DTT. Compounds were serially diluted in buffer and 5 μL of each concentration pipetted into a white 384 well plate (Sigma Aldrich M6186). A 5 μL aliquot of the Wee-1 enzyme was added to each well and the plate centrifuged for 1 min to ensure mixing of the enzyme and inhibitor. The plate was incubated at room temperature for 30 minutes before the addition of 2.0 μg/mL of substrate and 30 μM ATP in a 5 μL aliquot. The plate was centrifuged for one minute and incubated for 1 h at RT. 15 μL of ADP-Glo stop reagent was added to each well to quench the reaction and deplete unconverted ATP. The plate was incubated for a further 40 min in the dark at RT. 30 μL of ADP-Glo kinase detection reagent was added to each well, converting ADP to ATP, […]. The plate was shaken for 1 min, and incubated in the dark for an additional hour. Background: ADP-Glo first removes unused ATP, then detects ADP through luciferase.

pIC50: −log10 of the molar value.

Chain of Wee1-like protein kinase (P30291 whole entry): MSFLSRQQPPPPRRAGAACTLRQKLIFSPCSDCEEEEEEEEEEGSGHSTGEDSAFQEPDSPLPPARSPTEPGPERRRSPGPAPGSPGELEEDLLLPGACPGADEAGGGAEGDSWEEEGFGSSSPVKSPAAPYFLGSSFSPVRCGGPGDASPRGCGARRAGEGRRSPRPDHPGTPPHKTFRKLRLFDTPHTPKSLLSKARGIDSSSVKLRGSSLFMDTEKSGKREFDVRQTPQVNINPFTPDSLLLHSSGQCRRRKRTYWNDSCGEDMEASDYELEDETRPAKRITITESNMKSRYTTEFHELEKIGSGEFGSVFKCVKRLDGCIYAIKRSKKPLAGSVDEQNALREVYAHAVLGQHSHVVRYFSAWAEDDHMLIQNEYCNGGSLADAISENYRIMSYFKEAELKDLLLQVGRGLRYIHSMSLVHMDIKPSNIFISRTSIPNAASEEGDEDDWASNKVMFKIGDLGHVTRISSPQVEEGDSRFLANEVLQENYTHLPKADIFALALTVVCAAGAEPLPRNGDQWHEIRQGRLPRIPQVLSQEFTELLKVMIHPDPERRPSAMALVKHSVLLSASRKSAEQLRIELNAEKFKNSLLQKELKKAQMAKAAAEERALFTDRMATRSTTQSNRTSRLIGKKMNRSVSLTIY

The compound `C=CCn1c(=O)c2cnc(Nc3ccc(N4CCOCC4)nc3)nc2n1-c1cccc(N=S(C)(C)=O)n1` showed a pIC50 of 9.10.
